Reference: paper PMC8761492 (Life Science Alliance, 2022)
Values after ≈ are worked out from the molar mass of the structure shown. Starred links: 1 amine or outer side, 2 acyl side, 3 side chain; linkers in the order of their positions; H or OH if unused. Positions of bridges follow the written chain, without caps; N, C: chain ends. Non-standard residues stand in square brackets, D forms with d. Residues, ends and D or L forms follow the SMILES beside them. *: point of attachment. X1 = CC[C@H](C)[C@@H](N[*:1])[C@@H](O)CC(=O)O[C@H](C(=O)[C@H](C)C(=O)[*:2])C(C)C; NMeY = CN[C@@H](Cc1ccc(O)cc1)C(=O)O; dNMeL = CN[C@H](CC(C)C)C(=O)O; Pyruvoyl = CC(=O)C(=O)*

Experiments:
[1] = system: COVID-19; assay: APLICOV-PC: post hoc analysis of hospital discharge; type: in vivo, human
Experimental: Post hoc analyses were conducted to (1) assess disease severity at baseline (mild, moderate, severe COVID-19 by FDA criteria) ([23]) and (2) assess covariates associated with efficacy end points, including hospital discharge by Day 15 or Day 8.
The Kaplan–Meier method was used for the description of time to event end points and the median and the 95% confidence intervals were provided.

[2] = system: COVID-19; assay: APLICOV-PC: mortality, ventilation, ICU admission and oxygen therapy; type: in vivo, human
Experimental: Secondary outcomes included change from baseline of viral load, as evaluated by quantitative PCR via central laboratory on nasopharyngeal exudate or sampled from the lower respiratory tract within 48 h before first administration of plitidepsin and on days 4, 7, 15, and 31, and the percentage of patients requiring oxygen therapy, noninvasive mechanical ventilation, invasive mechanical ventilation and/or intensive care unit admission, and the percentage of patients with a fatal outcome on days 7, 15, and 31.
Analysis for preliminary evidence of efficacy was performed on all patients who had efficacy assessments at baseline and at least one subsequent assessment during treatment.
In regards with subgroup analyses, safety and efficacy outcomes also were assessed by age-group (<65 versus ≥65 yr) and efficacy outcomes were assessed by disease severity at baseline. Safety outcomes were also assessed before and after the implementation of the protocol amendment.

[3] = system: SARS-CoV-2; parameters: method as in PMID 33495306; settings: in vivo; cited from earlier work
[4] = Protocol estimate of target concentrations from the HCoV-229E experiment; settings: bovine, cell culture medium with 10% bovine serum
[5] = system: HCoV-229E; assay: as above; settings: from IC50 0.555 µg/l assuming a Hill slope of 1
[6] = system: SARS-CoV; type: cell-based; settings: Vero E6 cells; 50 nM; 48 hpi
[7] = system: SARS-CoV-2 (βCoV/KOR/KCDC03/2020); assay: microbe, parasite or virus in culture; type: cell-based; settings: Severe acute respiratory syndrome coronavirus 2, Vero
[8] = system: SARS-CoV-2/WA1; assay: SARS-CoV-2 infectivity in HeLa-ACE2 cells (viral NP); type: cell-based; settings: Severe acute respiratory syndrome coronavirus 2, HeLa-ACE2, 48 h
[9] = Drug-induced cytotoxicity in Vero E6 cells in the absence of virus; type: cell-based; settings: monkey, Vero E6 cells (ATCC CRL-1586), uninfected, Vero E6 cells without virus
[10] = Day 1 to Day 7, 1.5 mg (N = 14)
[11] = Day 1 to Day 7, 2.0 mg (N = 15)
[12] = Day 1 to Day 7, 2.5 mg (N = 15)
[13] = Day 1 to Day 31, 1.5 mg (N = 14)
[14] = Day 1 to Day 31, 2.0 mg (N = 15)
[15] = Day 1 to Day 31, 2.5 mg (N = 15)
[16] = Day 1 to Day 31, Total (N = 44)
[17] = Day 8 to Day 15, 1.5 mg (N = 14)
[18] = Day 8 to Day 15, 2.0 mg (N = 15)
[19] = Day 8 to Day 15, 2.5 mg (N = 15)
[20] = Day 8 to Day 15, Total (N = 44)
[21] = Day 16 to Day 31, 1.5 mg (N = 14)
[22] = Day 16 to Day 31, 2.0 mg (N = 15)
[23] = Day 16 to Day 31, 2.5 mg (N = 15)
[24] = Day 16 to Day 31, Total (N = 44)
[25] = day 1 to Day 7, Moderate (N=23)
[26] = day 1 to Day 15, Moderate (N=23)
[27] = day 1 to Day 31, Moderate (N=23)

## CC[C@H](C)[C@H]1NC(=O)[C@@H](NC(=O)[C@@H](CC(C)C)N(C)C(=O)[C@@H]2CCCN2C(=O)C(C)=O)[C@@H](C)OC(=O)[C@H](Cc2ccc(OC)cc2)N(C)C(=O)[C@@H]2CCCN2C(=O)[C@H](CC(C)C)NC(=O)[C@@H](C)C(=O)[C@H](C(C)C)OC(=O)C[C@@H]1O [Plitidepsin] (Pyruvoyl-P[dNMeL]T[X1]LP[NMeY](Me); ester 3-C)
[1]; 1.5 mg/day
  discharge rate at Day 15: 78.6%
  patients achieving hospital discharge by Day 8: 42.9%
[1]; 2 mg/day
  discharge rate at Day 15: 93.3%
  patients achieving hospital discharge by Day 8: 60%
[1]; 2.5 mg/day
  discharge rate at Day 15: 73.3%
  patients achieving hospital discharge by Day 8: 66.7%
[1]; mild COVID-19 at baseline
  median time to discharge: 7 days
[1]; mild disease, 4 of 6
  discharge rate by Day 8: 66.7%
[1]; mild disease, 6 of 6
  discharge rate by Day 15: 100%
[1]; moderate COVID-19 at baseline
  median time to discharge: 7 days
[1]; moderate disease at baseline, 1.5 mg/day, three of eight
  patients discharged beyond day 8: 38%
[1]; moderate disease at baseline, 2.0 mg/day, three of seven
  patients discharged beyond day 8: 43%
[1]; moderate disease at baseline, 2.5 mg/day
  patients discharged by day 8: 8 of 8
[1]; moderate disease, 17 of 23
  discharge rate by Day 8: 73.9%
[1]; moderate disease, 22 of 23
  discharge rate by Day 15: 95.7%
[1]; overall, 25 of 44
  discharge rate by day 8: 56.8%
[1]; overall, 36 of 44
  discharge rate by day 15: 81.8%
[1]; severe COVID-19 at baseline
  median time to discharge: 14 days
[1]; severe disease, 4 of 15
  discharge rate by Day 8: 27%
[1]; severe disease, 8 of 15
  discharge rate by Day 15: 53.3%
[2]; 1.5 mg (N = 14)
  Mortality from Day 1 to Day 31: 1 (7.1)
[2]; 2.5 mg (N = 15)
  Mortality from Day 1 to Day 31: 1 (6.7)
[2]; [10]
  Patients requiring invasive mechanical ventilation and/or intensive care unit admission: 2 (14.3)
  Patients requiring noninvasive mechanical ventilation: 4 (28.6)
[2]; [11]
  Patients requiring invasive mechanical ventilation and/or intensive care unit admission: 1 (6.7)
  Patients requiring noninvasive mechanical ventilation: 0
[2]; [12]
  Patients requiring invasive mechanical ventilation and/or intensive care unit admission: 2 (13.3)
  Patients requiring noninvasive mechanical ventilation: 1 (6.7)
[2]; Day 1 to Day 7, Total (N = 44)
  Patients requiring invasive mechanical ventilation and/or intensive care unit admission: 5 (11.4)
  Patients requiring noninvasive mechanical ventilation: 5 (11.4)
[2]; [13]
  Patients requiring invasive mechanical ventilation and/or intensive care unit admission: 2 (14.3)
  Patients requiring noninvasive mechanical ventilation: 5 (35.7)
  Patients requiring oxygen therapy at: 12 (85.7)
[2]; [14]
  Patients requiring invasive mechanical ventilation and/or intensive care unit admission: 1 (6.7)
  Patients requiring noninvasive mechanical ventilation: 1 (6.7)
  Patients requiring oxygen therapy at: 12 (80.0)
[2]; [15]
  Patients requiring invasive mechanical ventilation and/or intensive care unit admission: 3 (20.0)
  Patients requiring noninvasive mechanical ventilation: 2 (13.3)
  Patients requiring oxygen therapy at: 11 (73.3)
[2]; [16]
  Patients requiring invasive mechanical ventilation and/or intensive care unit admission: 6 (13.6)
  Patients requiring noninvasive mechanical ventilation: 8 (18.2)
  Patients requiring oxygen therapy at: 35 (79.5)
[2]; Day 7, 1.5 mg (N=14)
  Patients requiring oxygen therapy at: 12 (85.7)
[2]; Day 7, 2.0 mg (N = 15)
  Patients requiring oxygen therapy at: 12 (80.0)
[2]; Day 7, 2.5 mg (N=15)
  Patients requiring oxygen therapy at: 11 (73.3)
[2]; Day 7, Total (N=44)
  Patients requiring oxygen therapy at: 35 (79.5)
[2]; [17]
  Patients requiring invasive mechanical ventilation and/or intensive care unit admission: 1 (7.1)
  Patients requiring noninvasive mechanical ventilation: 3 (21.4)
[2]; [18]
  Patients requiring invasive mechanical ventilation and/or intensive care unit admission: 1 (6.7)
  Patients requiring noninvasive mechanical ventilation: 0
[2]; [19]
  Patients requiring invasive mechanical ventilation and/or intensive care unit admission: 1 (6.7)
  Patients requiring noninvasive mechanical ventilation: 2 (13.3)
[2]; [20]
  Patients requiring invasive mechanical ventilation and/or intensive care unit admission: 3 (6.8)
  Patients requiring noninvasive mechanical ventilation: 5 (11.4)
[2]; Day 15, 1.5 mg (N=14)
  Patients requiring oxygen therapy at: 4 (28.6)
[2]; Day 15, 2.0 mg (N = 15)
  Patients requiring oxygen therapy at: 1 (6.7)
[2]; Day 15, 2.5 mg (N=15)
  Patients requiring oxygen therapy at: 4 (26.7)
[2]; Day 15, Total (N=44)
  Patients requiring oxygen therapy at: 9 (20.5)
[2]; [21]
  Patients requiring invasive mechanical ventilation and/or intensive care unit admission: 1 (7.1)
  Patients requiring noninvasive mechanical ventilation: 1 (7.1)
[2]; [22]
  Patients requiring invasive mechanical ventilation and/or intensive care unit admission: 1 (6.7)
  Patients requiring noninvasive mechanical ventilation: 1 (6.7)
[2]; [23]
  Patients requiring invasive mechanical ventilation and/or intensive care unit admission: 1 (6.7)
  Patients requiring noninvasive mechanical ventilation: 1 (6.7)
[2]; [24]
  Patients requiring invasive mechanical ventilation and/or intensive care unit admission: 3 (6.8)
  Patients requiring noninvasive mechanical ventilation: 3 (6.8)
[2]; Day 31, 1.5 mg (N=14)
  Patients requiring oxygen therapy at: 0
[2]; Day 31, 2.0 mg (N = 15)
  Patients requiring oxygen therapy at: 2 (13.3)
[2]; Day 31, 2.5 mg (N=15)
  Patients requiring oxygen therapy at: 1 (6.7)
[2]; Day 31, Total (N=44)
  Patients requiring oxygen therapy at: 3 (6.8)
[2]; Total (N = 44)
  Mortality from Day 1 to Day 31: 2 (4.5)
[2]; day 1 to Day 7, Mild (N=6)
  Patients requiring oxygen therapy (low flow) at: 33.3%
  Patients requiring oxygen therapy at: 33.3%
[2]; [25]
  Patients requiring non-invasive mechanical ventilation at: 4.3%
  Patients requiring oxygen therapy (high flow) at: 4.3%
  Patients requiring oxygen therapy (low flow) at: 78.3%
  Patients requiring oxygen therapy at: 78.3%
[2]; day 1 to Day 7, Severe (N=15)
  Patients requiring ICU admission at: 33.3%
  Patients requiring invasive mechanical ventilation and/or ICU admission at: 33.3%
  Patients requiring non-invasive mechanical ventilation at: 26.7%
  Patients requiring oxygen therapy (high flow) at: 26.7%
  Patients requiring oxygen therapy (low flow) at: 100%
  Patients requiring oxygen therapy at: 100%
[2]; day 1 to Day 15, Mild (N=6)
  Patients requiring oxygen therapy (low flow) at: 33.3%
  Patients requiring oxygen therapy at: 33.3%
[2]; [26]
  Patients requiring non-invasive mechanical ventilation at: 4.3%
  Patients requiring oxygen therapy (high flow) at: 4.3%
  Patients requiring oxygen therapy (low flow) at: 78.3%
  Patients requiring oxygen therapy at: 78.3%
[2]; day 1 to Day 15, Severe (N=15)
  Patients requiring ICU admission at: 40%
  Patients requiring invasive mechanical ventilation and/or ICU admission at: 40%
  Patients requiring invasive mechanical ventilation at: 13.3%
  Patients requiring non-invasive mechanical ventilation at: 40%
  Patients requiring oxygen therapy (high flow) at: 40%
  Patients requiring oxygen therapy (low flow) at: 100%
  Patients requiring oxygen therapy at: 100%
[2]; day 1 to Day 31, Mild (N=6)
  Patients requiring oxygen therapy (low flow) at: 33.3%
  Patients requiring oxygen therapy at: 33.3%
[2]; [27]
  Patients requiring non-invasive mechanical ventilation at: 4.3%
  Patients requiring oxygen therapy (high flow) at: 4.3%
  Patients requiring oxygen therapy (low flow) at: 78.3%
  Patients requiring oxygen therapy at: 78.3%
[2]; day 1 to Day 31, Severe (N=15)
  Deaths at: 13.3%
  Patients requiring ICU admission at: 40%
  Patients requiring invasive mechanical ventilation and/or ICU admission at: 40%
  Patients requiring invasive mechanical ventilation at: 20%
  Patients requiring non-invasive mechanical ventilation at: 46.7%
  Patients requiring oxygen therapy (high flow) at: 40%
  Patients requiring oxygen therapy (low flow) at: 100%
  Patients requiring oxygen therapy at: 100%
[2]; moderate disease, one patient
  patients requiring nonmechanical invasive ventilation: 4.3%
[2]; severe disease at baseline, 6 of 15
  patients requiring intensive care support: 40%
[2]; severe disease, seven patients
  patients requiring nonmechanical invasive ventilation: 46.7%
[2]; six of 44 patients
  patients requiring intensive care support: 13.6%
[3]
  viral load in lungs: significant reduction in the viral load in lungs
[4]
  fraction unbound: > 0.96
[5]
  IC90 estimated: 4.995 ng/mL (≈ 4.5 nM)
[6]
  decrease in SARS-CoV genomic RNA accumulation: 10^4 fold
[7]; Boryung Pharmaceuticals
  IC50: 3.26 nM
[7]; estimated from IC50 and Hill slope
  IC90: 9.38 nM
[8]; read-out: Antiviral IC50
  IC50: 0.201 nM
[8]; read-out: Antiviral IC90
  IC90: 0.881 nM
[9]
  CC50 at 3 d: 2900 nM
